According to the NIST ThermoML archive (doi:10.1016/j.fluid.2010.05.013):
Numbers after ± are expanded uncertainties.

Settings: visual observation

Row | Structure (SMILES) | Normal melting temperature (Metastable crystal) [°C] | Normal melting temperature (Crystal) [°C]
1 | CCn1cc[n+](C)c1.O=S(=O)([N-]S(=O)(=O)C(F)(F)F)C(F)(F)F | -17.00 ± 2 | 
2 | CC(O)C(=O)O (stereo not drawn) [2-hydroxypropanoic acid] |  | 17 ± 0.17
3 | CCC(=O)O [propanoic acid] |  | -20.83 ± 0.17
